Test results taken from the NIST ThermoML archive (doi:10.1021/je900478c).

Experiment: refractive index (Na D-line) (dimensionless); xn = mol fraction of the nth substance listed
Settings: 101 kPa, Liquid, Standard Abbe refractometry

CCCCOCCOCCO [3,6-dioxa-1-decanol] + O
refractive index
Settings	x1 = 0.1	x1 = 0.2	x1 = 0.2999	x1 = 0.4	x1 = 0.5	x1 = 0.6	x1 = 0.7	x1 = 0.7998	x1 = 0.8999	x1 = 1
283.15 K	1.3916	1.41105	1.42035	1.42548	1.4286	1.4307	1.4323	1.4334	1.4342	1.4347
293.15 K	1.38935	1.40833	1.4174	1.42235	1.42535	1.42735	1.4289	1.4299	1.4307	1.4312
303.15 K	1.38705	1.4057	1.4146	1.41942	1.4224	1.42428	1.4258	1.42675	1.4275	1.42805
313.15 K	1.3842	1.4022	1.4109	1.41568	1.4185	1.4204	1.42185	1.42273	1.4234	1.424
323.15 K	1.3808	1.3982	1.4067	1.4113	1.41405	1.4159	1.41725	1.41815	1.4188	1.4194

CCCCOCCO [2-butoxyethan-1-ol] + O
refractive index
Settings	x1 = 0.1003	x1 = 0.2	x1 = 0.3	x1 = 0.4	x1 = 0.5	x1 = 0.6	x1 = 0.7	x1 = 0.7999	x1 = 0.9	x1 = 1
283.15 K	1.3785	1.3965	1.4061	1.4118	1.4156	1.41823	1.4199	1.4212	1.4221	1.4226
293.15 K	1.37658	1.39418	1.40355	1.4091	1.4128	1.41532	1.41695	1.41815	1.41905	1.4196
303.15 K	1.374	1.39115	1.40025	1.40562	1.4092	1.4116	1.41315	1.4143	1.4152	1.4157
313.15 K	1.37118	1.3878	1.39655	1.40175	1.4052	1.4075	1.40898	1.41012	1.41095	1.41139
323.15 K	–	1.38385	1.39248	1.3976	1.401	1.4032	1.40465	1.40575	1.4066	1.40701
